Reference: patent US12485095B2, “Plurality of tasquinimod particles and use thereof” (ACTIVE BIOTECH AB, priority 2021, dated 2025)
In brackets after ≈: the same amount, converted by molar mass.

Key:
[1] = Biopharmaceutics Classification System (BCS) classification; assay type: physicochemical; conditions: based on permeability and solubility
Experimental: (§1) Tasquinimod is a compound having high gastrointestinal permeability and high aqueous solubility. […] For a drug compound to be classified as “highly soluble” according to the BCS, the highest single therapeutic dose thereof should be completely soluble in 250 ml or less of aqueous media over the pH range of 1.2-6.8 at 37±1° C. […] Based on these properties, tasquinimod is classified as a BCS Class I compound. […] In view of the high water-solubility of tasquinimod, the low dissolution rate of tasquinimod particles in aqueous phase was completely unexpected. A low dissolution rate is susceptible of reducing the bioavailability and may pose an obstacle to an efficient oral administration of an otherwise therapeutically active compound.

[2] = aqueous solubility of tasquinimod; assay type: physicochemical
Experimental: as §1

[3] = gastrointestinal permeability using the Caco-2 cell model; assay type: in vitro ADME; conditions: human, read-out: permeability coefficient
Experimental: as §1

[4] = tested on: Caco-2 cell model; assay: as above; assay type: in vitro ADME
Experimental: as §1

[5] = pKa of tasquinimod; assay type: physicochemical; conditions: weak acid

- BCS class [1]: BCS Class I
- solubility relative to BCS "highly soluble" cut-off value ([2]; aqueous media over the pH range of 1.2-6.8 at 37±1° C.): ten-fold
- solubility ([2]; aqueous medium, pH 7.4, aqueous buffer): 250 µg/mL (≈ 615 µM)
- solubility relative to BCS "highly soluble" cut-off value ([2]; physiological pH at 7.4): 50 fold
- Papp [3]: 43.5 ± 0.9 ×10⁻⁶ cm/s
- permeability ranking according to the Biopharmaceutics Classification System (BCS) [4]: highly permeable
- pKa [5]: 6.5
SMILES: COc1cccc2c1c(O)c(C(=O)N(C)c1ccc(C(F)(F)F)cc1)c(=O)n2C [tasquinimod, 4-hydroxy-5-methoxy-N, 1-dimethyl-2-oxo-N-[4-(trifluoromethyl)phenyl]-1,2-dihydroquinoline-3-carboxamide]
